Laboratory results taken from paper PMC10799935, “Discovery of a peripheral 5HT2A antagonist as a clinical candidate for metabolic dysfunction-associated steatohepatitis” (Nature Communications, 2024).

Target: 5HT2A (Homo sapiens, UniProt P28223)
Assay: Human 5HT2A inhibition assay (FLIPR calcium 6, 5HT stimulus, stably transfected HEK293 cells)
Type: cell-based
Parameters: expressed in transfected cells; host or cells: HEK293
Conditions: for inhibition at 1 µM: HEK293, 1 μM, read-out: % Inhibition at 1 μM (SD)
Description: The derivatives were evaluated at a concentration of 1 μM for their antagonist activity on the 5HT2A receptor (Tables 1–3)[33],[34]. […] The cells were stained with 100 μL of cytosolic calcium dye using the FLIPR calcium 6 assay solution (Molecular devices, #R8190) supplemented with 2.5 mM probenecid (Sigma; P8761) and incubated for 1 h at 37 °C. After 1 h, the designated amount of the compound was treated in each well and incubated for another 1 h at 37 °C. […] Experimental conditions for the 5HT subtypes can be found in the Supporting Information (Supplementary Table 1).

5HT2A, sequence (P28223 whole entry): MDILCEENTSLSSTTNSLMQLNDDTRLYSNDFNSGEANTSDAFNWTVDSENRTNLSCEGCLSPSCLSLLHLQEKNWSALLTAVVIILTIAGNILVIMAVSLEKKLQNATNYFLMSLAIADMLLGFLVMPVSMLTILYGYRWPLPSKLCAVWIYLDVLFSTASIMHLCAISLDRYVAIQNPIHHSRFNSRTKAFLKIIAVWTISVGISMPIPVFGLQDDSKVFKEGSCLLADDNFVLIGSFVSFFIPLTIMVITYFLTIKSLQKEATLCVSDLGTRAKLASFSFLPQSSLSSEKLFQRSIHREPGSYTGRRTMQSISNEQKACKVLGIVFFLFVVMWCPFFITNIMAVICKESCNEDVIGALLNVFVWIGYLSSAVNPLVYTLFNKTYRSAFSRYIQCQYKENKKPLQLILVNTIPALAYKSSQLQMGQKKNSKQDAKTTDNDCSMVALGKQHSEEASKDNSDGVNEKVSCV

| IC50 [µM] | inhibition at 1 µM [%] | % Inhibition at 1 μM (SD) [%] | IC50 (nM) | SMILES |
| --- | --- | --- | --- | --- |
| 0.061 | 89.2 ± 11 | – | less potency than compound 11c | Cc1nc2n(c(=O)c1CCN1CCC(=C3c4ccccc4CCc4cccnc43)CC1)CCCC2O (stereo not shown) [Compound 11e] |
| 0.0111 | – | – | – | Cc1nc2n(c(=O)c1CCN1CCC(=C3c4ccc(Cl)cc4CCc4cccnc43)CC1)CCC[C@H]2O (single isomer, unassigned) [Compound 22 g] |

Continued, compound first:

| SMILES | IC50 [µM] | inhibition at 1 µM [%] | % Inhibition at 1 μM (SD) [%] | IC50 (nM) |
| --- | --- | --- | --- | --- |
| O=C1Cc2cc(C(O)CN3CCC(=C4c5ccc(Cl)cc5CCc5cccnc54)CC3)c(Cl)cc2N1 (stereo not shown) [Compound 9c] | 0.0222 | 93.8 ± 3.13 | – | – |
| O=C1Cc2cc(C(=O)CN3CCC(=C4c5ccc(Cl)cc5CCc5cccnc54)CC3)ccc2N1 [Compound 8b] | – | 68 | 68.34 ± 2.78 | – |
| Cc1nc2n(c(=O)c1CCN1CCC(=C3c4ccc(Cl)cc4CCc4cccnc43)CC1)CCC[C@@H]2O (single isomer, unassigned) [22 f] | – | – | 96.07 ± 1.87 | – |
| Cc1nc2n(c(=O)c1CCN1CCC(=C3c4ccc(Cl)cc4CCc4cccnc43)CC1)CCC[C@H]2O (single isomer, unassigned) [22 g] | – | – | 97.17 ± 7.11 | – |
